Experiments:
pSTAT5/GM-CSF = pSTAT5/GM-CSF cellular assay (JAK2 selectivity); assay type: cell-based
[1] = target: T1, TYK2-JH2 (aa 575-869, in-house) protein (Homo sapiens, UniProt P29597); assay: TYK2-JH2 biochemical assay (HTRF probe displacement); assay type: binding; conditions: Biochemical assay; read-out: TYK2-JH2 IC50
T1 construct: TYK2-JH2 (aa 575-869, in-house) protein; made in house
In short: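 HTRF probe-displacement format: compound dilutions (10 points, 5-fold, from 500 uM in DMSO at 500×) were combined with 0.2 nM TYK2-JH2 protein for 0.5 h at room temperature in HEPES pH 7.5 buffer with MgCl2, BSA, DTT and Brij-35. Percent inhibition came from the 615/665 nm fluorescence ratio, fitted to a four-parameter logistic for IC50.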

[2] = Mouse PK study, oral administration; assay type: in vivo, male CD-1 mouse
Protocol: Biological Assay: Mouse PK Study
The pharmacokinetics of compounds were evaluated in male CD-1 mouse via Oral Administration (dose of 10 mg/kg). For oral administration study, test compounds were added in 0.5% MC in water and administrated to mice at 10 mg/kg by gavage. Blood was collected into EDTA-K2 anticoagulant tube at 15, and 30 min and 1, 2, 4, 8 and 24 h after administration. Approximately 30 μL blood was collected at each time point. And then the blood was centrifuged at 2000 g for 5 min at 4° C. using a centrifuge to obtain the plasma. The plasma sample was transferred into a tube and stored in a freezer at approximately −70° C. until the determination of concentration by LC-MS/MS. Pharmacokinetic parameters were estimated by using WinNonlin software (version 8.1, Pharsight Corporation, CA, USA) with non-compartmental method. The following pharmacokinetic parameters were calculated, whenever possible from the plasma concentration-time data: Tmax, Cmax, AUClast, AUCinf, T1/2 for PO administration. All animals were fasted before experiment.

[3] = tested on: JAK2, TYK2/p-STAT4 (Tyr693) activated by IL-12 in NK-92 cell line; assay: IL-12-JAK2, TYK2/p-STAT4 (Tyr693) inhibition IC50 cellular assay; assay type: cell-based; conditions: NK92, Cellular assay; read-out: pSTAT4/IL-12 IC50
In short: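 p-STAT4 (Tyr693) in lysates was measured by AlphaLISA SureFire Ultra after a 30 min IL-12 challenge (40 ng/ml final) at 37° C. Overnight-starved, IL-2-free NK-92 cells had been pretreated 1 h with compound at 10000 to 0.61 nM (4-fold, 8 points). IC50 values came from four-parameter logistic fitting.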

[4] = target: T2, JAK1-JH2 protein (aa 561-860, in-house) (Homo sapiens, UniProt P23458); assay: JAK1-JH2 biochemical assay (HTRF probe displacement); assay type: binding; conditions: in-house probe of the JAK1-JH2 assay
T2 construct: JAK1-JH2 protein (aa 561-860, in-house); made in house

[5] = Po dosing (10 mg/kg), male CD-1 mouse

T1 sequence (P29597 575-869): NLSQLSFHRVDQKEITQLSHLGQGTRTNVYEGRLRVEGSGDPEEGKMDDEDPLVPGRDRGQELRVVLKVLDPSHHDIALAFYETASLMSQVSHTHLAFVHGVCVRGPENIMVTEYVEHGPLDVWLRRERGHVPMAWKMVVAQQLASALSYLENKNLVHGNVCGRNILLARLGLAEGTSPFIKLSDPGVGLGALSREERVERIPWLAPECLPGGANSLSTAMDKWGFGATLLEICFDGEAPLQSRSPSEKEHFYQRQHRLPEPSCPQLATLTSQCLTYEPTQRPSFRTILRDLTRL
T2 sequence (P23458 561-860): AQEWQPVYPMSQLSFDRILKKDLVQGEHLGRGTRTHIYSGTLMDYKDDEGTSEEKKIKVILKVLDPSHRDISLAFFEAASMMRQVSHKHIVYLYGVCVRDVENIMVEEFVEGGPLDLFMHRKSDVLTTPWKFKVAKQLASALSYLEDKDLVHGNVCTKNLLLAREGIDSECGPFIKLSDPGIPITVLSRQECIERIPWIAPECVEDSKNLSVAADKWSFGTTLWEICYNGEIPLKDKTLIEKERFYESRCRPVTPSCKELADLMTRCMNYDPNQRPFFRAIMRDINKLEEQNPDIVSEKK

| Structure (SMILES) | IC50 (pSTAT5/GM-CSF) [nM] | Selectivity fold (TYK2/JAK2) (pSTAT5/GM-CSF; pSTAT5/GM-CSF IC50 over pSTAT4/IL-12 IC50) [fold] | IC50 [1] [nM] | AUC and Cmax fold higher than those of Example F22 and H11 ([2]; Po 10 mg/kg mouse) | AUClast [2, 5] [ng·h/mL] | T1/2 [2, 5] [h] | AUC ([2]; male, CD-1, plasma, Po 10 mg/kg mouse) [ng·h/mL] | Cmax ([2]; plasma, Po dosing (10 mg/kg), male CD-1 mouse, read-out: Cmax) [ng/mL] | IC50 [3] [nM] | Kd [4] [nM] |
| --- | --- | --- | --- | --- | --- | --- | --- | --- | --- | --- |
| COc1cc(Nc2cc(NC(C)=O)ncc2-c2ccc3c(n2)OCC(C)(C)O3)nc(S(C)(=O)=O)c1 [Example Q25, N-(5-(2,2-dimethyl-2,3-dihydro-[1,4]dioxino[2,3-b]pyridin-6-yl)-4-((4-methoxy-6-(methylsulfonyl)pyridin-2-yl)amino)pyridin-2-yl)acetamide] | 1820 | 3437 | 0.026 | at least 3 fold | 16245 | 3.01 | 16200 | 2820 | 0.53 | – |
| CN(C(=O)CN1CCN(CCNC(=O)CCOCCOCCOCCOCCOCCOCCNC(=O)CCCC[C@@H]2SC[C@@H]3NC(=O)N[C@@H]32)CC1)c1ccc(N/C(=C2\C(=O)Nc3ccccc32)c2ccccc2)cc1 [Probe 2, N-(2-(4-(2-(methyl(4-((((Z)-2-oxoindolin-3-ylidene)(phenyl)methyl)amino)phenyl)amino)-2-oxoethyl)piperazin-1-yl)ethyl)-1-(5-((3aS,4S,6aR)-2-oxohexahydro-1H-thieno[3,4-d]imidazol-4-yl)pentanamido)-3,6,9,12,15,18-hexaoxahenicosan-21-amide] | – | – | – | – | – | – | – | – | – | 2.9 |
